According to patent publication US20060178389A1, “Use of siramesine in the treatment of cancer” (priority 2003, published 2006):

Experiments:
[1] = tested on: cultured tumor cell lines originating from tumors of the prostate, breast and cervix; experiment: Induction of programmed cell death in cultured tumor cell lines (MTT / LDH release); type: cell-based, human; conditions: dose dependent, tumor cell lines of various origins incl. prostate
Description: (§1) Murine fibrosarcoma cells WEHI-S, Wn902, Wn912, and WEHI-R4 are normal, vector control, Hsp70 overexpressing, and hTNF resistant cells, respectively. Other cell types tested include: Human breast cancer cell types MCF7-S1 and MDA-MB-468, and non-tumorigekic immortalized breast epithelial cells HBL100. MCF7 casp3.1 and −3.3 and neo2 are single cell clones expressing caspase3 and vector. MCF7 pCEP, -Bcl2 WT, -Bcl2 NT, -Bcl2 Acta, and -Bcl2 Cb5 are single cell clones expressing vector, wildtype Bcl2, cytoplasma localized Bcl2, mitochondria localized Bcl2, and ER localized Bcl2 (Maria Høyer Hansen, Apoptosis Laboratory, Danish Cancer Society). Human neuroblastoma cell line SK-N-MC cells (ATCC, USA). […]
(§2) Cell viability was measured using the MTT reduction assay. Conversion of the tetrazolium salt 3-(4,5-dimethylthiazole-2-yl)-2,5-diphenyltetrasodiumbromide (MTT, SIGMA-Aldrich) into the blue-colored formazan product was assessed spectrophotometrically by absorption at 570 nm using a Versamax microplate reader (Molecular Devices). The survival rate was determined as the percentage of untreated cells or inhibitor-treated cells: Cells were seeded into 96-well plate, containing 200 μL media, and treated the following day with drugs. The effect on cell viability was assessed 24-60 h after drug addition by removal of 100 μL media and addition of 25 μL MTT solution (1 mg/mL in PBS, sterile filtered). […]

[2] = tested on: N1H3T3 murine fibroblasts transduced with v-Ha-ras or c-src; experiment: Sensitivity of fibroblasts towards Siramesine after oncogenic transformation; type: cell-based; conditions: upon oncogenic transformation by ras or src
Description: as §1, §2

[3] = tested on: WEHI-S cells; experiment: Induction of apoptosis compared with reference sigma ligands, WEHI-S; type: cell-based, murine; conditions: versus Haloperidol and pentazocine
Description: as §1, §2

[4] = tested on: MCF7 cells; experiment: Induction of apoptosis compared with reference sigma ligands, MCF7; type: cell-based, human; conditions: versus Haloperidol and pentazocine
Description: as §1, §2

[5] = tested on: effector caspase; experiment: Mode of cell death: nuclear morphology, caspase inhibitors, caspase 3/7-like activity; type: cell-based
Description: (§3) The following protease inhibitors were used: zVAD-fmk, DEVD-fmk (Bachem Bubendorf, Switzerland), DEVD-CHO (Neosystems, Strasbourg, France), LEHD-CHO, zFA-fmk (Enzyme System Products, Livermore, Calif.), CA-074-Me (Peptides International, Louisville, Ky.), APC1138 (Celera Applied Biosystems, Foster City, Calif., USA),. Pepstatin A, PD150606, and calpain inhibitor I (CI) (Calbiochem, La Jolla, Calif.), TPCK (Boehringer Mannheim), pefabloc (AEBSF) (Roche Diagnostics, DK).
The cell death mode was assessed by the type of nuclear condensation and performed by hoechst staining (cell permeable Hoechst 33342, SIGMA-Aldrich) of drug-treated cells. Non cell permeable Sytox Green (Molecular Probes) was used to assay loss of membrane integrity and compared with nuclear morphological changes observed with Hoechst. Cells were incubated with 10.000× dilution of 25 mg/mL hoechst and /or 10.000× dilution of 5 mM sytox green for 5 min at 37° C. where after type of nuclear condensation and possible co-stain was analyzed using an inverted Olympus microscope IX-70.
(§4) To measure cytosolic cystein cathepsin enzyme activity, subconfluent cells seeded in 24-well plates were treated with an extraction buffer (250 mM sucrose, 20 mM HEPES, 10 mM KCl, 1.5 mM MgCl2, 1 mM EDTA, 1 mM EGTA, 1 mM pefablock; pH 7.5) containing 20 μg/mL digitonin for 12-15 min on ice. […]

[6] = tested on: lysosomal cathepsins; experiment: Release of lysosomal cathepsins (immunostaining of cathepsin B and L, purified lysosomes, cathepsin inhibitors); type: cell-based
Description: as §3
as §4, with “ice. To measure total cellular cystein cathepsin enzyme activity, cells were treated with the above extraction buffer containing 200 μg/mL digitonin for 12-15 min on ice.” for “ice.”
Cells were exposed to the lysomotropic weak base and metachromatic fluorochrome acridine orange (AO, Molecular Probes) that accumulates in acidic compartments. […] Cells were either evaluated using an inverted Olympus microscope IX-70 or detached from the substratum and analyzed by flow cytometry using a FACSort (Becton Dickinson, San Jose, Calif.) with an argon ion laser with an output wavelength of 488 nm and analyzed using CELLQuest software. […]

[7] = tested on: Tumor cells protected by ectopic expression of Bcl-2; experiment: Killing of tumor cells with ectopic expression of Bcl-2; type: cell-based; conditions: cells protected against most other anti-cancer drugs by ectopic expression of Bcl-2
Description: as §1, §2

[8] = tested on: p53; experiment: p53 activation; type: cell-based
[9] = tested on: WEHI-R4 cells
Procedure: WEHI-R4 cells (5×10^6) were implanted subcutaneously in the back of immunocompetent female BALB/c mice. Siramesine treatment commenced two days prior to tumor implant. Mice were divided into groups (5-9/group) and administered peroral 200 μL 1) vehicle (0.5% methylcellulose 15 in 0.9% NaCl solution), 2) 100 mg/kg/day Siramesine in suspension (in 0.5% methylcellulose 15 in 0.9% NaCl solution) 7 days per week. For combinational in vivo studies, 50 mg/kg siramesine was administered 7 days/week in combination with a single dose of etoposide (i.p.) up to 30 mg/kg (administered on day one). Tumor volumes were estimated by the use of a caliper. The effect of the drugs on the tumor growth was monitored over 14-21 days before the mice were sacrificed.

[10] = tested on: WEHI-S cells; experiment: Induction of cell death in combination with chemotherapeutics; type: cell-based, murine; conditions: together with etoposide, doxorubicin, staurosporin, vincristine and tamoxifen
Description: as §1, §2

With `Fc1ccc(-n2cc(CCCCN3CCC4(CC3)OCc3ccccc34)c3ccccc32)cc1` [Siramesine, 1′-[4-[1-(4-fluorophenyl)-1H-indole-3-yl]-1-butyl]-spiro[isobenzofuran-1(3H)4′-piperidine]] the “induction of programmed cell death” value [1] was “effectively induces programmed cell death”, the “sensitivity of cells towards Siramesine” value [2] was “increased” and the “potency as inducer of apoptosis versus reference sigma ligands” value [3] was “significantly more potent inducer of apoptosis than Haloperidol and pentazocine”. The “potency as inducer of apoptosis versus reference sigma ligands” value [4] was “significantly more potent inducer of apoptosis than Haloperidol and pentazocine”, the effector caspase activation [5] was “absence of effector caspase activation” and the mode of death ([5]; based on nuclear morphological changes and absence of protection by pharmacological caspase inhibitors) was “caspase-independent”. For the same molecule, the “effect of pharmacological cathepsin inhibitors on siramesine-induced death” value [6] was “can attenuate the death”, the “release of lysosomal cathepsins into the cytosol” value ([6]; immunohistochemical staining of cathepsin B and L, in vitro release from purified lysosomes) was “release of lysosomal cathepsins into the cytosol seems to be involved in the execution of the death process” and the “killing of Bcl-2 expressing tumor cells” value [7] was “effectively killed”. For the same molecule, the “activation of p53” value [8] was “does not activate p53”, the “effect on tumor growth” value ([9]; BALB/c mice, siramesine alone, peroral) was “anti-tumorigenic effect” and the “effect on tumor growth, combination with etoposide” value ([9]; BALB/c mice, siramesine and etoposide versus groups single-treated) was “combinational effect”. The tolerability in vivo ([9]; mouse, in vivo) was “well tolerated” and the “interaction with chemotherapeutics in induction of cell death” value [10] was “synergistic”.
